pIC50: −log10 of the molar value.
How the values were obtained:
human mTOR enzyme = human mTOR enzyme (Homo sapiens, UniProt P42345); assay: HTRF mTOR enzyme (kinase) assay; type: biochemical; conditions: rated class; 5 μM ATP, 0.2 μM GST-S6K; read-out: hMTOR IC50
[1] = test system: mTORC2 activity: phosphorylated AKT Ser473 (pAKT S473) in PC3 cells; assay: mTOR target engagement assay, immunofluorescent cell-based, mTORC2 readout; conditions: Homo sapiens, PC-3, 1.5 h, rated class, 90 min treatment
Procedure, shortened: (§1)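 Read-out is immunofluorescence intensity, normalized to DMSO-only wells and fitted to a sigmoidal Hill equation for IC50. The mTORC1 arm probes phospho-4E-BP1 Thr37/46 and the mTORC2 arm phospho-AKT Ser473.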

[2] = test system: mTORC1 activity: phosphorylated 4E-BP1 Thr37/46 (p4E-BP1 Thr37/46) in PC3 cells; assay: mTOR target engagement assay, immunofluorescent cell-based, mTORC1 readout; conditions: Homo sapiens, PC-3, 1.5 h, rated class, 90 min treatment, read-out: P4EBP1 IC50
Procedure, shortened: as §1

Chain of human mTOR enzyme (P42345 1360-2549 limits assumed): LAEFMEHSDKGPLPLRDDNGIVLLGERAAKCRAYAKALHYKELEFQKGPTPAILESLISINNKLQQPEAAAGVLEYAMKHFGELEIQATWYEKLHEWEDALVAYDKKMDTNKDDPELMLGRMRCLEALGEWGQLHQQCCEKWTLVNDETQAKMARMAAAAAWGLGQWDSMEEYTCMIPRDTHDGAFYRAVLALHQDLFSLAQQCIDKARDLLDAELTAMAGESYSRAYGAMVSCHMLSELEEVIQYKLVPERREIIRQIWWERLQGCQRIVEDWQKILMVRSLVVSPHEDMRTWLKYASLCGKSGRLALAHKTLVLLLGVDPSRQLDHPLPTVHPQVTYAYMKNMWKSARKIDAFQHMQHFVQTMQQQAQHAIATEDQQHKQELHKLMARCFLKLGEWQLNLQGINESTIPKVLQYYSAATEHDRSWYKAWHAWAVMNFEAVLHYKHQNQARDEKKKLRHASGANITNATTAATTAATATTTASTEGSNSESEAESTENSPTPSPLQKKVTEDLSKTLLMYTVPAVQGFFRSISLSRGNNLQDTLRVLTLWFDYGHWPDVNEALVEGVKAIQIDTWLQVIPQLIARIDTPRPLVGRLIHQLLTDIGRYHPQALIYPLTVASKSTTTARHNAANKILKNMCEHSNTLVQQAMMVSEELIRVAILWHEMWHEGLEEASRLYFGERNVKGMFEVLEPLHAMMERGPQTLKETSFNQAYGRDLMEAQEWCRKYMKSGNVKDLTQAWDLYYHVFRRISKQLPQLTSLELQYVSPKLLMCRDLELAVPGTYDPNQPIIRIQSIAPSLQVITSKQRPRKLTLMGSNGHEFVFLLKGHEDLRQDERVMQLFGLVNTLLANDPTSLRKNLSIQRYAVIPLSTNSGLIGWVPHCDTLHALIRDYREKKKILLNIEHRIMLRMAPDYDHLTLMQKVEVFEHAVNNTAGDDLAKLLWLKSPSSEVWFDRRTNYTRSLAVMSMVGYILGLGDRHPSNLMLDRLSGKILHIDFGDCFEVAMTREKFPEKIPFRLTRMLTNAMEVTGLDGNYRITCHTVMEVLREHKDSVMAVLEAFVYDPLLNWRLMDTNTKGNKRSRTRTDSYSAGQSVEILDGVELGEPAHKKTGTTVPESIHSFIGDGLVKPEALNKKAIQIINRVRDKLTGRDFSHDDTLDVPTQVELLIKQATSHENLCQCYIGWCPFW

Row | Compound | pIC50 (human mTOR enzyme) | pIC50 [1] | pIC50 [2]
1 | CC(=O)c1c(N)n2ncc(-c3ccc(-c4ccccc4)nc3)c2nc1[C@H]1CC[C@](O)(CO)CC1 [Compound 140, 1-(7-amino-5-((1S,4S)-4-hydroxy-4-(hydroxymethyl)cyclohexyl)-3-(6-phenylpyridin-3-yl)pyrazolo[1,5-a]pyrimidin-6-yl)ethanone] | 7.00 to 9.00 | 7.00 to 9.00 | 6.00 to 7.00
2 | CC(=O)c1c(C2CCC(O)(CO)CC2)nc2c(-c3ccc(-c4nccs4)nc3)cnn2c1N (stereo not drawn) [Compound 156, 1-(7-amino-5-(4-hydroxy-4-(hydroxymethyl)-cyclohexyl)-3-(6-(thiazol-2-yl)pyridin-3-yl)pyrazolo[1,5-a]pyrimidin-6-yl)ethanone] | 7.00 to 9.00 | 6.00 to 7.00 | 6.00 to 7.00
3 | CC(=O)c1c(C2CCC(O)(CO)CC2)nc2c(-c3cnc(-c4ccccc4)nc3)cnn2c1N (stereo not drawn) [Compound 158, 1-(7-amino-5-(4-hydroxy-4-(hydroxymethyl)-cyclohexyl)-3-(2-phenylpyrimidin-5-yl)pyrazolo[1,5-a]pyrimidin-6-yl)ethanone] | 7.00 to 9.00 | 6.00 to 7.00 | 6.00 to 7.00
4 | CC(=O)c1c(C2CCC(O)(CNS(C)(=O)=O)CC2)nc2c(-c3ccc(-c4ccccc4)nc3)cnn2c1N (stereo not drawn) [Compound 160, N-((4-(6-acetyl-7-amino-3-(6-phenylpyridin-3-yl)pyrazolo[1,5-a]pyrimidin-5-yl)-1-hydroxycyclohexyl)methyl)methanesulfonamide] | 7.00 to 9.00 | 6.00 to 7.00 | 6.00 to 7.00
5 | CC(=O)c1c(N)n2ncc(-c3ccc(-c4ccccc4)nc3)c2nc1[C@H]1CC[C@@](O)(CS(C)(=O)=O)CC1 [Compound 161, 1-(7-amino-5-((1R,4R)-4-hydroxy-4-(methylsulfonylmethyl)cyclohexyl)-3-(6-phenylpyridin-3-yl)pyrazolo[1,5-a]pyrimidin-6-yl)ethanone] | 7.00 to 9.00 | 6.00 to 7.00 | 6.00 to 7.00
6 | CC(=O)c1c(N)n2ncc(-c3ccc(-c4ccccc4)nc3)c2nc1[C@H]1CC[C@](O)(CS(C)(=O)=O)CC1 [Compound 162, 1-(7-amino-5-((1S,4S)-4-hydroxy-4-(methylsulfonylmethyl)cyclohexyl)-3-(6-phenylpyridin-3-yl)pyrazolo[1,5-a]pyrimidin-6-yl)ethanone] | 7.00 to 9.00 | 7.00 to 9.00 | 6.00 to 7.00
7 | CS(=O)(=O)c1c(C2CCC(O)(CO)CC2)nc2c(-c3cnn(-c4ccccc4)c3)cnn2c1N (stereo not drawn) [Compound 166, 4-(7-amino-6-(methylsulfonyl)-3-(1-phenyl-1H-pyrazol-4-yl)pyrazolo[1,5-a]pyrimidin-5-yl)-1-(hydroxymethyl)cyclohexanol] | 7.00 to 9.00 | 7.00 to 9.00 | 6.00 to 7.00

Further lines, results first:

Row | pIC50 (human mTOR enzyme) | pIC50 [1] | pIC50 [2] | Compound
8 | 7.00 to 9.00 | 6.00 to 7.00 | 6.00 to 7.00 | COCCO[C@]1(c2nnc[nH]2)CC[C@@H](c2nc3c(-c4ccc(-c5ccccc5)nc4)cnn3c(N)c2S(C)(=O)=O)CC1 [Compound 128]
9 | 7.00 to 9.00 | 7.00 to 9.00 | 6.00 to 7.00 | COCCO[C@]1(C(=O)CO)CC[C@@H](c2nc3c(-c4cnn(-c5ccccc5)c4)cnn3c(N)c2S(C)(=O)=O)CC1 [Compound 129, 1-((1R,4R)-4-(7-amino-6-(methylsulfonyl)-3-(1-phenyl-1H-pyrazol-4-yl)pyrazolo[1,5-a]pyrimidin-5-yl)-1-(2-methoxyethoxy)cyclohexyl)-2-hydroxyethanone]
10 | 7.00 to 9.00 | 5.70 to 6.00 | 5.30 to 5.70 | Nc1c(Br)c(C2CCC(O)(C(=O)O)CC2)nc2c(-c3ccc(-c4ccccc4)nc3)cnn12 (stereo not drawn) [Compound 131, 4-(7-amino-6-bromo-3-(6-phenylpyridin-3-yl)pyrazolo[1,5-a]pyrimidin-5-yl)-1-hydroxycyclohexanecarboxylic acid]
11 | 7.00 to 9.00 | 6.00 to 7.00 | 6.00 to 7.00 | CC(=O)c1c(C2CCC(CO)(C(=O)O)CC2)nc2c(-c3ccc(-c4ccccc4)nc3)cnn2c1N (stereo not drawn) [Compound 133, 4-(6-acetyl-7-amino-3-(6-phenylpyridin-3-yl)pyrazolo[1,5-a]pyrimidin-5-yl)-1-(hydroxymethyl)cyclohexanecarboxylic acid]
12 | 7.00 to 9.00 | 6.00 to 7.00 | 6.00 to 7.00 | CC(=O)c1c(N)n2ncc(-c3ccc(-c4ccccc4)nc3)c2nc1[C@H]1CC[C@@](O)(CO)CC1 [Compound 139, 1-(7-amino-5-((1R,4R)-4-hydroxy-4-(hydroxymethyl)cyclohexyl)-3-(6-phenylpyridin-3-yl)pyrazolo[1,5-a]pyrimidin-6-yl)ethanone]
